pIC50: −log10 of the molar value.
Key:
PDE10 from pig striatum = PDE10 from pig striatum (Sus scrofa, UniProt A0A287B941); test: Inhibition of PDE10 from pig striatum (Method A / Method B), [3H]-cAMP SPA; format: biochemical
Description: Striatum from male Wistar rats (180-200 g), male hybrid pigs (150 kg) and male guinea pigs (CRL (HA), 500 g) respectively were collected and frozen at −70° C. […] The supernatant is called the cytosolic fraction and was removed and stored on ice. The pellet was resuspended in the same buffer, but containing 1% Triton and incubated for 45 min at 4° C. Both fractions were independently applied onto a 5 ml Hi Trap™ QHP column at the Äkta-FPLC. After washing the columns the bound PDE protein was eluted with an increasing sodium chloride gradient (0 mM-500 mM sodium chloride) in 50 mM Tris/Mg-buffer at 4° C. for the cytosolic fraction and in the presence of 1% Triton for the membrane fraction. […] The fractions with PDE10-activity were pooled and frozen in aliquots until use at −20° C. PDE10 activity was determined in a one step procedure in microtiter plates. The reaction mixture of 100 μl contained 50 mM Tris-HCl/5 mM MgCl2 buffer (pH=7.4) (Sigma, Deisenhofen, Germany; Merck, Darmstadt, Germany) 0.1 μM [^3H]-cAMP (Amersham, Buckinghamshire, UK) and the enzyme. Nonspecific activity was tested without the enzyme. The reaction was initiated by addition of the substrate solution and was carried out at 37 ° C. for 30 minutes. Enzymatic activity was stopped by addition of 25 μl YSi-SPA-beads (Amersham-Pharmacia). One hour later the mixture was measured in a liquid scintillation counter for microtiter plates (Microbeta Trilux). To pipette the incubation mixture a robot Biomek (Fa. Beckman) is used. […] The optimal amount of enzyme in the assay has been determined and optimised for each enzyme preparation and substrate separately before using the enzyme in compound testing. For determination of IC50 values the Hill-plot, 2-parameter-model, was used. […] Striatum from male hybrid pigs (150 kg) were collected and frozen at −70° C. […] The supernatant was removed and the pellet was resuspended in the same buffer, but containing 1% Triton and incubated for 45 min at 4° C. The membrane fraction was applied onto a 5 ml Hi Trap™ QHP column at the Äkta-FPLC. After washing the column the bound PDE protein was eluted with an increasing sodium chloride gradient (0 mM-500 mM sodium chloride) in 50 mM Tris/Mg-buffer at 4° C. in the presence of 1% Triton. […] The fractions with PDE10-activity were pooled and frozen in aliquots until use at −20° C. PDE10 activity was determined in a one step procedure in microtiterplates. The reaction mixture of 100 μl contained 50 mM Tris-HCl/5 mM MgCl2 buffer (pH=7.4) (Sigma, Deisenhofen, Germany; Merck, Darmstadt, Germany) 0.1 μM [3H]-cAMP (Amersham, Buckinghamshire, UK) and the enzyme. Nonspecific activity was tested without the enzyme. The reaction was initiated by addition of the substrate solution and was carried out at 37° C. for 30 minutes. Enzymatic activity was stopped by addition of 25 μl YSi-SPA-beads (Amersham-Pharmacia). One hour later the mixture was measured in a liquid scintillation counter for microtiterplates (Microbeta Trilux). To pipette the incubation mixture a robot Biomek (Fa. Beckman) is used. […] The optimal amount of enzyme in the assay has been determined and optimised for each enzyme preparation before using the enzyme in compound testing. For determination of IC50 values the Hill-plot, 2-parameter-model, was used.

human recombinant PDE10A = target: T1, human recombinant PDE10A (Homo sapiens, UniProt Q9Y233); test: Inhibition of human recombinant PDE10A (Method B), [3H]-cAMP SPA; format: biochemical; conditions: read-out: PDE10 inhibition IC50 PDE10A human
T1 construct: made in house; host or cells: SF21 insect cells (baculovirus)
Description: The gene was than inserted into a baculovirus vector, ligated with the baculovirus DNA. The enzyme-protein was expressed in SF21-cells. The enzyme was isolated from these cells by harvesting the cells by a centrifugation at 200 g to collect the cells. The cells were resuspended in 50 mM Tris-HCl/5 mM MgCl2 buffer (pH=7.4) and lysed by a sonication of the cells. The cytosolic PDE10A was obtained by a centrifugation at 48000 g for 1 h in the supernatant and stored at −70 ° C. PDE10 activity was determined in a one step procedure in microtiterplates. […] Nonspecific activity was tested without the enzyme. The reaction was initiated by addition of the substrate solution and was carried out at 37° C. for 30 minutes. Enzymatic activity was stopped by addition of 25 μl YSi-SPA-beads (Amersham-Pharmacia). One hour later the mixture was measured in a liquid scintillation counter for microtiterplates (Microbeta Trilux). To pipette the incubation mixture a robot Biomek (Fa. Beckman) is used. […] For determination of IC50 values the Hill-plot, 2-parameter-model, was used.

[1] = test system: apomorphine-induced stereotypies; conditions: rats; cited from earlier work
[2] = test system: haloperidol-induced catalepsy; conditions: rats; cited from earlier work
[3] = test system: dopamine concentration in rat brain; conditions: cited from earlier work

T1 sequence (Q9Y233 1-779 isoform Q9Y233-1): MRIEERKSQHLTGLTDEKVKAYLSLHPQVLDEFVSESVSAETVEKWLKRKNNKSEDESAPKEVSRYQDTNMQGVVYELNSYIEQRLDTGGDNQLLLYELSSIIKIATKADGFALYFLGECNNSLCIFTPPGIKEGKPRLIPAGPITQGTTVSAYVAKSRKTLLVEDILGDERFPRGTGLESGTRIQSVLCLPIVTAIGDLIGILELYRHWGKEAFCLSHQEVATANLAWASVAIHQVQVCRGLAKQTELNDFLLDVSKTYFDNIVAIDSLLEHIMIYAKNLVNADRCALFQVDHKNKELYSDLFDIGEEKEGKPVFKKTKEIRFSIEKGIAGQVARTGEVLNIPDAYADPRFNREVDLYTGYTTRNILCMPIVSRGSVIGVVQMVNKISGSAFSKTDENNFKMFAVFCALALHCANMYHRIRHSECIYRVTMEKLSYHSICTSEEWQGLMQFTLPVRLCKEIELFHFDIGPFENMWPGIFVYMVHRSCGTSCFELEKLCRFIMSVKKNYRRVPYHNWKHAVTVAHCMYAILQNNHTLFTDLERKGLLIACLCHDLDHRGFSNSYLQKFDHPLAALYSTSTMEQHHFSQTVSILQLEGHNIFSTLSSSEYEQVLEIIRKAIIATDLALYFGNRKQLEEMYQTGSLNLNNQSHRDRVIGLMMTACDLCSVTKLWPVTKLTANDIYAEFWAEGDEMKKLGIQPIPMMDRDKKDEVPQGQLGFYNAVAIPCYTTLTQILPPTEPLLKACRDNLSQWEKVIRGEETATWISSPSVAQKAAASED

| SMILES | pIC50 (PDE10 from pig striatum) | pIC50 (human recombinant PDE10A) | melting point [°C] | effect on apomorphine-induced stereotypies [1] | effect on haloperidol-induced catalepsy [2] | effect on dopamine concentration in rat brain [3] |
| --- | --- | --- | --- | --- | --- | --- |
| CCCc1nc(C)c2c(NS(C)(=O)=O)nc3cc(OC)ccc3n12 [Example 15, N-(7-Methoxy-3-methyl-1-propyl-imidazo[1,5-a]quinoxalin-4-yl)-methanesulfonamide] | 7.00 to 8.00 | 7.00 to 8.00 | 222 to 226 | – | – | – |
| COc1ccc2nc(NS(C)(=O)=O)c3c(C)nc(C4CCCCC4)n3c2c1 [Example 10, N-(1-Cyclohexyl-8-methoxy-3-methyl-imidazo[1,5-a]quinoxalin-4-yl)-methanesulfonamide] | – | 7.00 to 8.00 | 287 to 288 | – | – | – |
| CCc1nc(C)c2c(NS(C)(=O)=O)nc3ccccc3n12 [Example 2, N-(1-Ethyl-3-methyl-imidazo(1,5-a)quinoxalin-4-yl)-methanesulfonamide] | ≤ 7.00 | – | – | – | – | – |
| COc1ccc2nc(C#N)c3c(C)nc(C4CCCCC4)n3c2c1 [Example 8, 1-Cyclohexyl-8-methoxy-3-methyl-imidazo[1,5-a]quinoxaline-4-carbonitrile] | 7.00 to 8.00 | ≤ 7.00 | 244 to 248 | – | – | – |
| Cc1nc(-c2ccccc2Cl)n2c1c(NS(C)(=O)=O)nc1ccc(F)cc12 [Example 5, N-(1-(2-Chlorphenyl)-8-fluoro-3-methyl-imidazo(1,5-a)quinoxalin-4-yl)-methanesulfonamide] | 7.00 to 8.00 | – | – | – | – | – |
| CCCc1nc(C)c2c(NS(C)(=O)=O)nc3ccc(OCC4CC4)cc3n12 [Example 11, N-(8-Cyclopropylmethoxy-3-methyl-1-propyl-imidazo[1,5-a]quinoxalin-4-yl)-methanesulfonamide] | – | ≥ 8.00 | 240 to 241 | – | – | – |
| Cc1nc(C2CCCCC2)n2c1c(NS(C)(=O)=O)nc1ccc(F)cc12 [Example 6, N-(1-Cyclohexyl-8-fluoro-3-methyl-imidazo(1,5-a)quinoxalin-4-yl)-methanesulfonamide] | 7.00 to 8.00 | – | 291 to 293 | – | – | – |
| CCCc1nc(C)c2c(NS(C)(=O)=O)nc3ccc(F)cc3n12 [Example 4, N-(8-Fluoro-3-methyl-1-propyl-imidazo(1,5-a)quinoxalin-4-yl)-methanesulfonamide] | 7.00 to 8.00 | – | 277 to 280 | – | – | – |
| CCc1nc(C)c2c(NS(C)(=O)=O)nc3ccc(N4CCCCC4)cc3n12 [Example 7, N-[1-Ethyl-3-methyl-8-(piperidin-1-yl)-imidazo(1,5-a)quinoxalin-4-yl]-methanesulfonamide] | 7.00 to 8.00 | – | 223 to 227 | – | – | – |
| CCc1nc(C)c2c(NS(C)(=O)=O)nc3ccc(F)cc3n12 [Example 3, N-(1-Ethyl-8-fluoro-3-methyl-imidazo(1,5-a)quinoxalin-4-yl)-methanesulfonamide] | ≤ 7.00 | – | 268 to 269 | – | – | – |
| COc1ccc(Cc2nccc3cc(OC)c(OC)cc23)cc1OC [Papaverine] | – | – | – | reduces apomorphine-induced stereotypies | increases haloperidol-induced catalepsy | reducing dopamine concentration |
| CCCc1nc(C)c2c(NS(C)(=O)=O)nc3ccc(OC)cc3n12 [Example 9, N-(8-Methoxy-3-methyl-1-propyl-imidazo[1,5-a]quinoxalin-4-yl)-methanesulfonamide] | – | 7.00 to 8.00 | 234 to 237 | – | – | – |
| Cc1nc(C2CCCCC2)n2c1c(NS(C)(=O)=O)nc1ccc(OCc3ccc4ccccc4n3)cc12 [Example 13, N-[1-Cyclohexyl-3-methyl-8-(quinolin-2-ylmethoxy)-imidazo[1,5-a]quinoxalin-4-yl]-methanesulfonamide] | ≥ 8.00 | ≥ 8.00 | 255 to 258 | – | – | – |
| CCCc1nc(C)c2c(C#N)nc3ccc(F)cc3n12 [Example 1, 8-Fluoro-3-methyl-1-propyl-imidazo(1,5-a)quinoxaline-4-carbonitrile] | 7.00 to 8.00 | – | – | – | – | – |
| Cc1nc(C2CCCCC2)n2c1c(NS(C)(=O)=O)nc1ccc(OCC3CC3)cc12 [Example 12, N-(1-Cyclohexyl-8-cyclopropylmethoxy-3-methyl-imidazo[1,5-a]quinoxalin-4-yl)-methanesulfonamide] | ≥ 8.00 | 7.00 to 8.00 | 259 to 261 | – | – | – |
| COc1ccc2c(c1)nc(NS(C)(=O)=O)c1c(C)nc(-c3ccccc3Cl)n12 [Example 14, N-[1-(2-Chloro-phenyl)-7-methoxy-3-methyl-imidazo[1,5-a]quinoxalin-4-yl]-methanesulfonamide] | 7.00 to 8.00 | 7.00 to 8.00 | 277 to 278 | – | – | – |

More lines, main results first:

| pIC50 (PDE10 from pig striatum) | pIC50 (human recombinant PDE10A) | melting point [°C] | SMILES | effect on apomorphine-induced stereotypies [1] | effect on haloperidol-induced catalepsy [2] | effect on dopamine concentration in rat brain [3] |
| --- | --- | --- | --- | --- | --- | --- |
| – | 7.00 to 8.00 | 103 to 105 | CCCc1nc(C)c2c(Cl)nc3ccc(OCC4CC4)cc3n12 [Example B12] | – | – | – |
| – | 7.00 to 8.00 | 212 to 215 | COc1ccc2nc(Cl)c3c(C)nc(C4CCCCC4)n3c2c1 [Example B11] | – | – | – |
| 7.00 to 8.00 | – | 160 to 163 | CCc1nc(C)c2c(Cl)nc3ccc(N4CCCCC4)cc3n12 [Example B2, 4-Chloro-1-ethyl-3-methyl-8-piperidin-1-yl-imidazo(1,5-a)quinoxaline] | – | – | – |
| ≤ 7.00 | – | 244 to 248 | Cc1nc(C2CCCCC2)n2c1c(Cl)nc1ccc(Cl)cc12 [Example B9] | – | – | – |
| 7.00 to 8.00 | – | 125 to 128 | CCc1nc(C)c2c(Cl)nc3ccccc3n12 [Example B3] | – | – | – |
| 7.00 to 8.00 | – | 133 to 135 | CCCc1nc(C)c2c(Cl)nc3ccc(F)cc3n12 [Example B6, 4-Chloro-8-fluoro-3-methyl-1-propyl-imidazo(1,5-a)quinoxaline] | – | – | – |
| 7.00 to 8.00 | – | 205 to 210 | Cc1nc(C2CCCCC2)n2c1c(Cl)nc1ccc(F)cc12 [Example B7] | – | – | – |
| – | 7.00 to 8.00 | 154 to 159 | CCCc1nc(C)c2c(Cl)nc3cc(OC)ccc3n12 [Example B15] | – | – | – |
| – | ≤ 7.00 | 165 to 168 | Cc1nc(C2CCCCC2)n2c1c(Cl)nc1ccc(OCC3CC3)cc12 [Example B13] | – | – | – |

From patent publication US20090143391A1, “Aryl and heteroaryl fused imidazo [1,5-a] pyrazines as inhibitors of phosphodiesterase 10” (priority 2007, published 2009)
